Target: human P2X3 receptor (Homo sapiens (Human), UniProt P56373)
Assay: Evaluation of human P2X3 receptor inhibitory activity (Test Example 1-2, FLIPR 384, 384-well, 150 nM ATP)
Type: cell-based
Details: C6BU-1 cell transfected with human P2X3 receptor gene; method of Test Example 1-2 (compounds I-301 to I-483); read-out: IC50 (human P2X3 receptor inhibitory activity)
Method: Stably expressing cell line (C6BU-1 cell transfected with human P2X3 receptor gene (GenBank accession number Y07683) was used. The cells were seeded in a 384-well microtiter plate at a concentration of 3000 cells/well and cultured in the medium (7.0% fetal bovine serum, 7.0% horse serum, 1% antibiotic and antifungal in DMEM) for one day at 37° C. under 5% carbon dioxide atmosphere. The medium was replaced with 4 μM Fluo-3-AM solution (20 mM HEPES, […], 5.27 mM KCl, 0.9 mM MgCl2, 1.26 mM CaCl2, 5.6 mM D-glucose, 2.5 mM probenecid, 0.5% BSA, and 0.04% Pluronic F-127, pH 7.5) and incubated at 37° C. under 5% dioxide carbon atmosphere for one hour. The plate was washed with washing buffer (20 mM HEPES, 137 mM NaCl, 5.27 mM KCl, 0.9 mM MgCl2, 1.26 mM CaCl2, 5.6 mM D-glucose, 2.5 mM probenecid, pH7.5), and each well was added with 20 μL of this buffer. The plate was placed in High-Throughput Screening System FLIPR 384 (Molecular Device Co.). Measurement of fluorescence intensity by FLIPR 384 was started, and 20 μL of DMSO solutions containing different concentrations of the test compound as prepared by dilution with dilution buffer (20 mM HEPES, 137 mM NaCl, 5.27 mM KCl, 0.9 mM MgCl2, 1.26 mM CaCl2, 5.6 mM D-glucose, 2.5 mM probenecid, 0.1% Pluronic F-127, pH 7.5) were dispensed to each well through the built-in automatic dispenser. Five minutes after, 150 nM ATP solution (25 μL) prepared by dilution with the dilution buffer was dispensed through the built-in automatic dispenser, and the measurement of fluorescence intensity was continued for 4 min. For each well, the specific maximum fluorescence intensity was calculated as the ratio of the maximum fluorescence intensity after addition of the ATP solution to the fluorescence intensity at the starting of the measurement. The 50% inhibitory concentration (IC50) was calculated under the assumption that the specific maximum fluorescence intensity without test compound is 0% inhibition and that the specific maximum fluorescence intensity when the dilution buffer was added in place of ATP solution is 100% inhibition, to evaluate the inhibitory activity of the test compound. The specific maximum fluorescence intensity and IC50 were calculated using Spotfire (Science & Technology Systems, Inc.)
The data of the compounds I-001 to I-300 are the results by the method mentioned in Test Example 1-1, and the data of the compounds I-301 to I-483 are the results by the method mentioned in Test Example 1-2.

human P2X3 receptor, sequence (P56373 whole entry): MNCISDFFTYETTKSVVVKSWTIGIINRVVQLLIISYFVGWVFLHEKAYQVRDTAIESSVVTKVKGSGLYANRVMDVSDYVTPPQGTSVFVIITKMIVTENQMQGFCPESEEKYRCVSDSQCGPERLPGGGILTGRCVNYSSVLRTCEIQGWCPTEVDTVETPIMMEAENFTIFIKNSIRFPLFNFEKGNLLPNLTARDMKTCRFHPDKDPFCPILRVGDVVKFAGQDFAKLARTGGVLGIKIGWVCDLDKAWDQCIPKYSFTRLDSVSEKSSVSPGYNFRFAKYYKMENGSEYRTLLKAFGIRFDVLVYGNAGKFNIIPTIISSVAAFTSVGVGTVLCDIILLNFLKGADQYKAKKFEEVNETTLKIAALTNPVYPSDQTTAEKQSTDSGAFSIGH

| SMILES | IC50 [nM] |
| --- | --- |
| CSc1ncc(Nc2ccc(Oc3ccc(F)cn3)cc2)c(Cc2ccc(F)cc2)n1 [Compound I-479] | < 30000 |
| O=C(O)c1cn(Cc2ccc(Cl)cc2)c2cc(Nc3ccc(Oc4ccc(F)cn4)cc3)ccc2c1=O [Compound I-461] | < 30000 |
| O=C(O)c1cccc(Oc2ccc(/N=c3\[nH]ccc(=O)n3Cc3ccc(Cl)cc3)cc2)n1 [Compound I-448] | < 30000 |
| O=C(O)c1cccc(Oc2ccc(Nc3nc4ccccc4n3Cc3ccc(F)cc3)cc2)n1 [Compound I-470] | < 30000 |
| CC(C)(C)c1cc(Nc2ccc(Oc3cccc(C(N)=O)n3)cc2)n(Cc2ccc(Cl)cc2)n1 [Compound I-468, 3-t-butyl-1-(4-chlorobenzyl)-5-[4-(6-carbamoyl-2-pyridyloxy)phenylamino]pyrazole] | < 30000 |

Same assay, conditions: human P2X3 receptor in C6BU-1 cells; Test Example 1-2 (compounds I-301 to I-483); read-out: P2X3 IC50

| SMILES | IC50 [nM] |
| --- | --- |
| O=C(NC1CCCOC1)c1cn(Cc2ccc(Cl)cc2)c(Nc2ccc(Oc3cccc(F)n3)cc2)nc1=O (stereo not drawn) [Compound I-383] | 13 |
| Cc1nnc(-c2c[nH]/c(=N\c3ccc(Oc4cccc(C#N)n4)cc3)n(Cc3ccc(Cl)cc3)c2=O)o1 [Compound I-327] | 34 |
| CC(C)n1ccc(Nc2ccc(Oc3cccc(C(=O)O)n3)cc2)c(Cc2ccc(Cl)cc2)c1=O [Compound I-466] | 597 |
| CNC(=O)CNC(=O)c1cn(Cc2ccc(Cl)cc2)c(Nc2ccc(Oc3cccc(F)n3)cc2)nc1=O [Compound I-430] | 83 |
| CSc1cccc(Oc2ccc(/N=c3\[nH]cc(N4CCCC4=O)c(=O)n3Cc3ccc(Cl)cc3)cc2)n1 [Compound I-334] | 838 |
| O=C(NCc1ccoc1)c1cn(Cc2ccc(Cl)cc2)c(Nc2ccc(Oc3cccc(F)n3)cc2)nc1=O [Compound I-419] | 55 |
| COc1cn(Cc2ccc(Cl)cc2)c(Nc2ccc(Oc3cccc(C#N)n3)cc2)nc1=O [Compound I-350] | 405 |
| Cc1nc(Nc2cc(=O)n(CC(F)(F)C(=O)O)c(=O)n2Cc2ccc(Cl)cc2)ccc1Oc1ccc(F)cn1 [Compound I-405] | 5 |
| N#Cc1cccc(Oc2ccc(/N=c3\[nH]cc(-c4ccccc4)c(=O)n3Cc3ccc(Cl)cc3)cc2)n1 [Compound I-408, 1-(4-chlorobenzyl)-2-[4-(6-cyano-2-pyridyloxy)phenylamino]-5-phenylpyrimidin-6(1H)-one] | 407 |
| CCCc1c[nH]/c(=N\c2ccc(Oc3cccc(C(=O)O)n3)cc2)n(Cc2ccc(Cl)cc2)c1=O [Compound I-436] | 13 |
| O=C(O)c1cccc(Oc2ccc(/N=c3\[nH]cc(C4CCOCC4)c(=O)n3Cc3ccc(Cl)cc3)cc2)n1 [Compound I-478] | 5 |
| O=C(NCC(=O)N1CCCCC1)c1cn(Cc2ccc(Cl)cc2)c(Nc2ccc(Oc3cccc(F)n3)cc2)nc1=O [Compound I-382] | 9 |
| CCCn1c(=O)c(F)c(Nc2ccc(Oc3cccc(C#N)n3)c(C)n2)n(Cc2ccc(Cl)cc2)c1=O [Compound I-301] | 163 |
| CCOC(=O)c1noc(-c2c[nH]/c(=N\c3ccc(Oc4ccon4)cc3)n(Cc3ccc(Cl)cc3)c2=O)n1 [Compound I-437] | 124 |
| NC(=O)c1cccc(Oc2ccc(/N=c3\[nH]cc(C4CCOCC4)c(=O)n3Cc3ccc(Cl)cc3)cc2)n1 [Compound I-483] | 17 |
| COC(=O)c1ccc(Oc2ccc(/N=c3\[nH]cc(-c4nc(C)no4)c(=O)n3Cc3ccc(Cl)cc3)cc2)nn1 [Compound I-312] | 7 |
| N#Cc1cccc(Oc2ccc(/N=c3\[nH]cc(Nc4ccon4)c(=O)n3Cc3ccc(Cl)cc3)cc2)n1 [Compound I-319] | 19 |
| O=C(NC1CCNC1=O)c1cn(Cc2ccc(Cl)cc2)c(Nc2ccc(Oc3cccc(F)n3)cc2)nc1=O (stereo not drawn) [Compound I-389] | 10 |
| O=C(NC1CCCC1)c1cn(Cc2ccc(Cl)cc2)c(Nc2ccc(Oc3cccc(F)n3)cc2)nc1=O [Compound I-376] | 40 |
| Cc1noc(-c2c[nH]/c(=N\c3ccc(Oc4ccon4)cc3)n(Cc3ccc(Cl)cc3)c2=O)n1 [Compound I-345] | 38 |
| N#CCNC(=O)c1c[nH]/c(=N\c2ccc(Oc3ccon3)cc2)n(Cc2ccc(Cl)cc2)c1=O [Compound I-425] | 21 |
| NC(=O)CNC(=O)c1cn(Cc2ccc(Cl)cc2)c(Nc2ccc(Oc3cccc(F)n3)cc2)nc1=O [Compound I-431] | 44 |
| Cc1nc(Nc2cc(=O)n(C(C)C)c(=O)n2Cc2ccc(Cl)cc2)ccc1Oc1cccc(C(=O)O)n1 [Compound I-341] | 10 |
| CC(C)c1c[nH]/c(=N\c2ccc(Oc3ncc(C(=O)O)s3)cc2)n(Cc2ccc(Cl)cc2)c1=O [Compound I-412] | 9 |
| O=C(NCC1CCOC1)c1cn(Cc2ccc(Cl)cc2)c(Nc2ccc(Oc3cccc(F)n3)cc2)nc1=O (stereo not drawn) [Compound I-396] | 25 |

| SMILES | IC50 [nM] |
| --- | --- |
| COCCn1c(=O)cc(Nc2ccc(Oc3ccc(F)nc3)cc2)n(Cc2ccc(Cl)cc2)c1=O [Compound I-342] | 10 |
| O=C(Nc1c[nH]/c(=N\c2ccc(Oc3ccc(C(F)(F)F)nn3)cc2)n(Cc2ccc(Cl)cc2)c1=O)C1CCOCC1 [Compound I-435] | 3 |
| C#CCNC(=O)c1c[nH]/c(=N\c2ccc(Oc3ccon3)cc2)n(Cc2ccc(Cl)cc2)c1=O [Compound I-344] | 4 |
| CCC(=O)Nc1c[nH]/c(=N\c2ccc(Oc3cccc(CC(=O)O)c3)cc2)n(Cc2ccc(Cl)cc2)c1=O [Compound I-355] | 53 |
| Cc1noc(-c2c[nH]/c(=N\c3ccc(Oc4cccc(C(N)=O)n4)cc3)n(Cc3ccc(Cl)cc3)c2=O)n1 [Compound I-316] | 13 |
| CC(=O)NNC(=O)c1c[nH]/c(=N\c2ccc(Oc3ccon3)cc2)n(Cc2ccc(Cl)cc2)c1=O [Compound I-347] | 152 |
| Cc1nc(Nc2cc(=O)n(C(C)C)c(=O)n2Cc2ccc(Cl)cc2)ccc1Oc1cccc(C#N)c1 [Compound I-340] | 8 |
| COC(=O)c1cc(Oc2ccc(/N=c3\[nH]cc(Nc4ccon4)c(=O)n3Cc3ccc(Cl)cc3)cc2)ccn1 [Compound I-320] | 19 |
| CCOC(=O)c1cnc(Oc2ccc(/N=c3\[nH]cc(-c4nc(C)no4)c(=O)n3Cc3ccc(Cl)cc3)cc2)s1 [Compound I-311] | 31 |
| O=C(NCc1ncco1)c1cn(Cc2ccc(Cl)cc2)c(Nc2ccc(Oc3cccc(F)n3)cc2)nc1=O [Compound I-384] | 60 |
| CC(C)c1c[nH]/c(=N\c2ccc(Oc3cccc(C(=O)O)n3)cc2)n(Cc2ccc(Cl)cc2)c1=O [Compound I-353] | 6 |
| CCOC(=O)c1cnc(Oc2ccc(/N=c3\[nH]cc(C(C)C)c(=O)n3Cc3ccc(Cl)cc3)cc2)s1 [Compound I-410] | 626 |
| CC(=O)OCC(=O)NNC(=O)c1c[nH]/c(=N\c2ccc(Oc3ccon3)cc2)n(Cc2ccc(Cl)cc2)c1=O [Compound I-343] | 84 |
| CCC(=O)Nc1c[nH]/c(=N\c2ccc(Oc3ccc(C(F)(F)F)nn3)cc2)n(Cc2ccc(Cl)cc2)c1=O [Compound I-411] | 10 |
| COc1cn(Cc2ccc(Cl)cc2)c(Nc2ccc(Oc3cccc(C(=O)O)n3)cc2)nc1=O [Compound I-404] | 102 |
| O=c1c(Nc2ccon2)c[nH]/c(=N\c2ccc(Oc3ccc(F)cn3)cc2)n1Cc1ccc(Cl)cc1 [Compound I-318] | 27 |
| N#Cc1cccc(Oc2ccc(/N=c3\[nH]cc(N4CCCC4=O)c(=O)n3Cc3ccc(Cl)cc3)cc2)n1 [Compound I-332] | 179 |
| COC(=O)C(C)(C)Cn1c(=O)cc(Nc2ccc(Oc3ccc(F)cn3)c(C)n2)n(Cc2ccc(Cl)cc2)c1=O [Compound I-364] | 4 |
| CCC(=O)Nc1c[nH]/c(=N\c2ccc(Oc3ccc(C#N)nn3)cc2)n(Cc2ccc(Cl)cc2)c1=O [Compound I-306] | 19 |
| COC(=O)c1cccc(Oc2ccc(/N=c3\[nH]cc(C4CCOCC4)c(=O)n3Cc3ccc(Cl)cc3)cc2)n1 [Compound I-476] | 66 |
| COC(=O)c1cncc(Oc2ccc(/N=c3\[nH]cc(C(C)C)c(=O)n3Cc3ccc(Cl)cc3)cc2)c1 [Compound I-367] | 471 |
| CCCc1c[nH]/c(=N\c2ccc(Oc3cccc(C#N)n3)cc2)n(Cc2ccc(Cl)cc2)c1=O [Compound I-434] | 193 |
| Cc1cc(CNC(=O)c2cn(Cc3ccc(Cl)cc3)c(Nc3ccc(Oc4cccc(F)n4)cc3)nc2=O)no1 [Compound I-420] | 88 |
| Cc1nc(Nc2cc(=O)n(CC(C)(C)C(=O)O)c(=O)n2Cc2ccc(Cl)cc2)ccc1Oc1ccc(F)cn1 [Compound I-365] | 5 |
